From the PolyMetriX glass transition set
± gives the standard deviation of the reports.

In order of rising glass transition temperature:
1. *Oc1ccc(Oc2ccc(Oc3cccc4c3C(=O)N(CCCCCCCCN3C(=O)c5cccc(*)c5C3=O)C4=O)cc2)cc1 (repeat unit)  128.00 °C
2. *Oc1cccc(Sc2ccc(Oc3cccc4c3C(=O)N(c3cccc(N5C(=O)c6cccc(*)c6C5=O)c3)C4=O)cc2)c1 (repeat unit)  231.00 °C
3. *Oc1cccc(Sc2ccc(Oc3cccc4c3C(=O)N(c3ccc(Oc5ccc(N6C(=O)c7cccc(*)c7C6=O)cc5)cc3)C4=O)cc2)c1 (repeat unit)  234.00 °C
4. *Oc1cccc(Oc2ccc(Oc3cccc4c3C(=O)N(c3cccc(N5C(=O)c6cccc(*)c6C5=O)c3)C4=O)cc2)c1 (repeat unit)  238.00 °C
5. *Oc1cccc(S(=O)(=O)c2ccc(Oc3cccc4c3C(=O)N(c3ccc(Oc5ccc(N6C(=O)c7cccc(*)c7C6=O)cc5)cc3)C4=O)cc2)c1 (repeat unit)  267.00 °C
6. *Oc1c(F)c(F)c(Oc2c(F)c(F)c3c(c2F)C(=O)N(c2c(F)c(F)c(Sc4c(F)c(F)c(N5C(=O)c6c(F)c(*)c(F)c(F)c6C5=O)c(F)c4F)c(F)c2F)C3=O)c(F)c1F (repeat unit)  278.00 °C
7. *C(=O)c1ccc2c(c1)C(=O)N(c1ccc(S(=O)(=O)c3ccc(N4C(=O)c5ccc(*)cc5C4=O)cc3)cc1)C2=O (repeat unit)  307.00 °C
8. *c1ccc2c(c1)C(=O)N(c1ccc(N3C(=O)c4ccc(C(*)(C(F)(F)F)C(F)(F)F)cc4C3=O)cc1F)C2=O (repeat unit)  370.00 °C
9. *c1ccc(P(=O)(c2ccccc2)c2ccc(N3C(=O)c4ccc(-c5ccc6c(c5)C(=O)N(*)C6=O)cc4C3=O)cc2)cc1 (repeat unit)  371.00 °C

Remark: another data set of the same source

In order of rising glass transition temperature:
1. *CCCCCCO* (repeat unit) [Polyoxyhexamethylene ]  -71.6 ± 3.5 °C
2. *CC(*)c1ccccc1OCCCCCCCC (repeat unit) [Poly(o-n-octoxy styrene) ]  12 ± 1.4 °C
3. *CC(*)(C)C(=O)OCC(C)C (repeat unit) [Poly(isobutyl methacrylate) ]  47.4 ± 0.7 °C
4. *CC(*)c1ccc(C(C)CC)cc1 (repeat unit) [Poly(p-sec-butyl styrene) ]  85.4 ± 0.7 °C
5. *CC(*)c1ccc(OC)cc1C (repeat unit) [Poly(4-methoxy-2-methyl styrene) ]  87.4 ± 3.5 °C
6. *CC(*)c1cccc(CO)c1 (repeat unit) [Poly(m-hydroxymethyl styrene) ]  124.4 ± 0.7 °C

Remark: another data set of the same source

In order of rising glass transition temperature:
1. *CC(*)(C)C(=O)OCCCCCCCC(C)C (repeat unit) [Poly(isodecyl methacrylate)]  -41 °C
2. *CC(*)C(=O)NC(C)CC (repeat unit) [Poly(N-sec-butylacrylamide)]  117 °C

Remark: another data set of the same source

In order of falling glass transition temperature:
1. *c1ccc2c(c1)C(CCCCCCCC)(CCCCCCCC)c1cc(-c3ccc(-c4c(-c5ccccc5)c(-c5ccccc5)c(-c5ccc(*)s5)c5nc(-c6ccccc6)c(-c6ccccc6)nc45)s3)ccc1-2 (repeat unit)  192.00 °C
2. *c1ccc2c(c1)C(CCCCCCCC)(CCCCCCCC)c1cc(-c3ccc(-c4ccc(-c5ccc(*)s5)c5nsnc45)s3)ccc1-2 (repeat unit)  126.00 °C
3. *c1ccc2c(c1)C(CCCCCCCC)(CCCCCCCC)c1cc(-c3ccc(-c4ccc(*)s4)s3)ccc1-2 (repeat unit)  102.00 °C
4. *c1cc2c(s1)c1sc(-c3sc(-c4ccc(-c5cc(CCCCCC)c(*)s5)c5nsnc45)cc3CCCCCC)cc1n2CC(CC)CCCC (repeat unit)  90.00 °C
5. *c1ccc2c(c1)N(CC(CCCCCCCC)CCCCCCCCCC)C(=O)/C2=C1/C(=O)N(CC(CCCCCCCC)CCCCCCCCCC)c2cc(-c3ccc(-c4ccc(*)s4)s3)ccc21 (repeat unit)  65.00 °C

Remark: another data set of the same source

`*C=C(*)c1ccccc1` (repeat unit) [Poly(phenylacetylene)] showed a glass transition temperature of 51 °C.
